Our source for the pest or weed control and plant injury values is patent US4208514A, “4(3H)-Oxobenzo-2,1,3-thiadiazine-2,2-dioxides” (The Dow Chemical Company, priority 1976, dated 1980).

Common to all, as to assay type: in vivo
The subject of one assay is Annual Morning Glory. As to the kind of experiment: General post-emergent herbicidal activity at 10 lbs/acre, Annual Morning Glory. Particulars: Ipomoea, post-emergence, 336 h. An excerpt:
(§1) Various species of plants, both broadleaf weeds and valuable crops, were planted in beds of good agricultural soil in a greenhouse. After the plants had emerged and grown to a height of about 2-6 inches, a portion of the plants were sprayed with an aqueous mixture, made by mixing a selected active ingredient and […], […] Other portions of the plants were left untreated to serve as controls. In each test the active ingredient was a 3-methylethyl-1H-2,1,3-benzothiadiazin-4(3H)-one-2,2-dioxide having a substituent in the one position according to the invention.
(§2) After a period of 2 weeks the selective effect of the test ingredient on the plants was evaluated by a comparison with the control group of plants.

The test system of another assay is Cotton. Description: Selective post-emergent greenhouse test, Cotton (crop injury). Particulars: Gossypium hirsutum, post-emergence, 336 h, post-emergent, 2 weeks, crop, read-out: % Control Cotton; for plant injury at 358.672 g/ha: 0.32 lbs/acre; for plant injury at 706.135 g/ha: 0.63 lbs/acre.
From the text: (§3) So as to illustrate clearly the phytotoxic properties of the various active ingredients of the present invention, a group of controlled greenhouse experiments is described below.
(§4) Various species of plants, both broadleaf weeds and valuable crops, were planted in beds of good agricultural soil in a greenhouse. After the plants had emerged and grown to a height of about 2-6 inches, a portion of the plants were sprayed with an aqueous mixture, made by mixing a selected active ingredient and emulsifier or dispersant with water to provide solution containing 250 or 125 ppm active ingredient, employing sufficient amounts of the treating composition to provide low post emergent application rates of about 0.63 or 0.32 pounds per acre. Other portions of the plants were left untreated to serve as controls. In each test the active ingredient was a 3-methylethyl-1H-2,1,3-benzothiadiazin-4(3H)-one-2,2-dioxide having a substituent in the one position according to the invention.
as §2

In a further assay the test system is Pig Weed. As to the kind of experiment: General post-emergent herbicidal activity at 10 lbs/acre, Pig Weed. Particulars: post-emergence, 336 h.
From the text: as §1, §2

The test system of the next assay is Jimson Weed. Description: Selective post-emergent greenhouse test, Jimson Weed. The note with it: post-emergence, 336 h, 2 weeks; for pest or weed control at 358.672 g/ha: 0.32 lbs/acre; for pest or weed control at 706.135 g/ha: 0.63 lbs/acre.
From the text: as §3, §4, §2

For assay [1], the system named is Velvet Leaf. Description: General post-emergent herbicidal activity at 10 lbs/acre, Velvet Leaf. The note with it: post-emergence, 336 h.
From the text: as §1, §2

In the next assay the test system is Soybean. Description: Selective post-emergent greenhouse test, Soybean (crop injury). Particulars: Glycine max, post-emergence, 336 h, 2 weeks, read-out: % Control Soybean; for plant injury at 358.672 g/ha: 0.32 lbs/acre; for plant injury at 706.135 g/ha: 0.63 lbs/acre.
From the text: as §3, §4, §2

Another assay has as its system Nutsedge. As to the kind of experiment: General post-emergent herbicidal activity at 10 lbs/acre, Nutsedge. The note with it: Cyperus, post-emergence, 336 h.
From the text: as §1, §2

For assay [2], the system named is Velvet Leaf. As to the kind of experiment: Selective post-emergent greenhouse test, Velvet Leaf. Particulars: post-emergence, 336 h, 2 weeks; for pest or weed control at 358.672 g/ha: 0.32 lbs/acre; for pest or weed control at 706.135 g/ha: 0.63 lbs/acre.
From the text: as §3, §4, §2

As for `C=CCOC(=O)N1c2ccccc2C(=O)N(C(C)C)S1(=O)=O` [CO2 CH2 CHCH2, 1H-2,1,3-Benzothiadiazine-1-carboxylic Acid: 3,4-dihydro-3-(1-methylethyl)-4-oxo-, 2-Propenyl Ester, 2,2-Dioxide], the pest or weed control (usually the degree to which the test organism was suppressed or injured, in per cent) at 11208.5 g/ha with Annual Morning Glory came out at 100%; in the assay on Pig Weed it was 100%; in the assay on Velvet Leaf [1] it was 100%; in the assay with Nutsedge it was 95%. In addition, the plant injury at 358.672 g/ha in the assay on Cotton was 50%; in the assay on Soybean, 0%. Also, the plant injury at 706.135 g/ha was 50% with Cotton and 0% in the assay with Soybean. In addition, the pest or weed control at 358.672 g/ha with Jimson Weed and in the assay with Velvet Leaf [2] was 100% each time. Moreover, the pest or weed control at 706.135 g/ha in the assay with Jimson Weed and in the assay with Velvet Leaf [2] was 100% each time.
On to `CC(Cl)C(=O)N1c2ccccc2C(=O)N(C(C)C)S1(=O)=O` (centres unmarked) [COCHClCH3, 1H-2,1,3-Benzothiadiazin-4(3H)-one: 1-(2-chloro-1-oxopropyl)-3-(1-methylethyl)-; 2,2-dioxide], for which the pest or weed control at 11208.5 g/ha in the assay with Annual Morning Glory was 100%; with Pig Weed it was 100%; in the assay with Velvet Leaf [1], 100%; in the assay with Nutsedge, 95%. Besides, the plant injury at 358.672 g/ha in the assay on Cotton and in the assay on Soybean was 0% in each case. The results for the plant injury at 706.135 g/ha in the assay with Cotton and in the assay on Soybean were 100% and 0%, respectively. Moreover, the pest or weed control at 358.672 g/ha with Jimson Weed and in the assay with Velvet Leaf [2] was 100% in each case. Besides, the pest or weed control at 706.135 g/ha with Jimson Weed and in the assay with Velvet Leaf [2] was 100% in each case.
Turning to `CC(C)N1C(=O)c2ccccc2N(S(=O)(=O)C(C)C)S1(=O)=O` [SO2 CH(CH3)2, 1H-2,1,3-Benzothiadiazin-4(3H)-one: 3-(1-methylethyl)-1-(1-methylethylsulfonyl)-; 2,2-dioxide], the pest or weed control at 11208.5 g/ha came out at 100% in the assay on Annual Morning Glory, 100% in the assay on Pig Weed, 100% in the assay on Velvet Leaf [1] and 85% with Nutsedge.
Take `CC(C)N1C(=O)c2ccccc2N(S(C)(=O)=O)S1(=O)=O` [SO2 CH3, 1H-2,1,3-Benzothiadiazin-4(3H)-one: 3-(1-methylethyl)-1-methylsulfonyl-; 2,2-dioxide]: the pest or weed control at 11208.5 g/ha with Annual Morning Glory worked out at 100%; in the assay with Pig Weed, 100%; with Velvet Leaf [1] it was 100%; in the assay with Nutsedge, 20%.
For `CCCCS(=O)(=O)N1c2ccccc2C(=O)N(C(C)C)S1(=O)=O` [SO2 (CH2)3 CH3, 1H-2,1,3-Benzothiadiazin-4(3H)-one: 1-Butylsulfonyl-3-(1-methylethyl)-; 2,2-dioxide], the pest or weed control at 11208.5 g/ha in the assay with Annual Morning Glory came out at 100%; with Pig Weed it was 100%; in the assay with Velvet Leaf [1], 100%; in the assay on Nutsedge, 85%.
Regarding `CCCC(C)C(=O)N1c2ccccc2C(=O)N(C(C)C)S1(=O)=O` (centres unmarked) [COCH(CH3)CH2 CH2 CH3, 1H-2,1,3-Benzothiadiazin-4(3H)-one: 3-(1-methylethyl)-1-(2-methyl-1-oxopentyl)-; 2,2-dioxide], the pest or weed control at 11208.5 g/ha in the assay on Annual Morning Glory is 100%; in the assay on Velvet Leaf [1], 100%; with Nutsedge, 95%.
In the case of `CCCCOC(=O)N1c2ccccc2C(=O)N(C(C)C)S1(=O)=O` [CO2 (CH2)3 CH3], the pest or weed control at 11208.5 g/ha in the assay on Annual Morning Glory was determined as 100%; in the assay on Pig Weed it was 100%; in the assay on Velvet Leaf [1], 100%; with Nutsedge, 95%.
Take `CC(C)N1C(=O)c2ccccc2N(S(=O)(=O)CCl)S1(=O)=O` [SO2 CHCl, 1H-2,1,3-Benzothiadiazin-4(3H)-one: 1-chloromethylsulfonyl-3-(1-methylethyl)-; 2,2-dioxide]: the pest or weed control at 11208.5 g/ha is 80% in the assay on Annual Morning Glory, 100% in the assay with Pig Weed, 100% in the assay on Velvet Leaf [1] and 90% in the assay on Nutsedge.
As for `CC(C)C(=O)N1c2ccccc2C(=O)N(C(C)C)S1(=O)=O` [COCH(CH3)2, 1H-2,1,3-Benzothiadiazin-4 (3H)-one:3-(1-methylethyl)-1-(2- -methyl-1-oxopropyl)-2,2-dioxide], the pest or weed control at 11208.5 g/ha in the assay with Annual Morning Glory was found to be 100%; in the assay with Velvet Leaf [1] it was 100%; in the assay on Nutsedge, 95%.
In the case of `CCN(CC)S(=O)(=O)N1c2ccccc2C(=O)N(C(C)C)S1(=O)=O` [SO2 N(C2 H5)2], the pest or weed control at 11208.5 g/ha with Annual Morning Glory amounted to 100%; in the assay with Pig Weed, 100%; in the assay with Velvet Leaf [1], 100%; in the assay with Nutsedge it was 60%.
Take `CCS(=O)(=O)N1c2ccccc2C(=O)N(C(C)C)S1(=O)=O` [SO2 CH2 CH3, 1H-2,1,3-Benzothiadiazin-4(3H)-one; 1-Ethylsulfonyl-3-(1-methylethyl)-; 2,2-dioxide]: the pest or weed control at 11208.5 g/ha in the assay with Annual Morning Glory came to 100%; in the assay with Pig Weed it was 100%; with Velvet Leaf [1], 100%; in the assay on Nutsedge it was 85%.
For `CCCOC(=O)N1c2ccccc2C(=O)N(C(C)C)S1(=O)=O` [CO2 CH2 CH2 CH3], the pest or weed control at 11208.5 g/ha with Annual Morning Glory came to 100%; with Pig Weed, 100%; in the assay with Velvet Leaf [1] it was 100%; with Nutsedge it was 90%.
Turning to `CC(C)OC(=O)N1c2ccccc2C(=O)N(C(C)C)S1(=O)=O` [CO2 CH(CH3)2], the pest or weed control at 11208.5 g/ha came out at 50% in the assay on Annual Morning Glory, 0% in the assay with Pig Weed, 100% in the assay with Velvet Leaf [1] and 70% in the assay on Nutsedge.
Consider `COC(=O)CCC(=O)N1c2ccccc2C(=O)N(C(C)C)S1(=O)=O` [COCH2 CH2 CO2 CH3, 1H-2,1,3-Benzothiadiazin-1-butanoic acid; γ,4-Dioxo-3-(1-methylethyl)-3,4-dihydro-, methyl ester; 2,2-dioxide], for which the pest or weed control at 11208.5 g/ha in the assay on Annual Morning Glory was found to be 100%; in the assay with Velvet Leaf [1], 100%; in the assay with Nutsedge, 95%.
`CCCC(=O)N1c2ccccc2C(=O)N(C(C)C)S1(=O)=O` [COCH2 CH2 CH3]: the pest or weed control at 11208.5 g/ha with Annual Morning Glory amounted to 100%; in the assay with Pig Weed, 100%; in the assay on Velvet Leaf [1] it was 100%; with Nutsedge, 90%.
Turning to `CCCS(=O)(=O)N1c2ccccc2C(=O)N(C(C)C)S1(=O)=O` [SO2 CH2 CH 2 CH3, 1H-2,1,3-Benzothiadiazin-4(3H)-one: 3-(1-methylethyl)-1-propylsulfonyl-; 2,2-dioxide], the pest or weed control at 11208.5 g/ha in the assay on Annual Morning Glory was 100%; in the assay with Pig Weed it was 100%; with Velvet Leaf [1], 100%; in the assay on Nutsedge, 90%.
